Measured values taken from article PMC8376931, “Structure activity relationships and the binding mode of quinolinone-pyrimidine hybrids as reversal agents of multidrug resistance mediated by P-gp” (Scientific Reports, 2021).
Like-named read-outs stand apart in the source and are kept apart here.

Experiments:
erythrocytes = test: Erythrocyte hemolysis assay; type: cell-based; conditions: assayed at 2.5 to 20 µM
Description: (§1) PBMC were isolated from heparinized blood of healthy volunteers by density centrifugation using Ficoll-Hypaque separation. Ethical approval was provided by the Catholic University of Córdoba Research Ethics Board and informed consents were obtained from all donors. Briefly, 1 × 10^5 PBMC/well were incubated with the tested compounds at concentrations ranging from 2.5 to 20 µM in the presence of 10 μg/mL PHA, or with 1% DMSO as control. After 48 h incubation, MTT was added and the same protocol described above was followed to calculate the IC50 values. An erythrocyte hemolysis assay was carried out following previous procedures[8] with the compounds assayed at 2.5 to 20 µM.

K562 cells [1] = test: MTT cytotoxicity assay in K562; type: cell-based; conditions: 48 h
Description: (§2) Then 0.5 mg/mL MTT in PBS was added. After additional incubation for 4 h, the formazan crystals obtained were dissolved in DMSO and the absorbance at 595 nm was read on an iMark micro-plate reader (Bio-Rad, USA). IC50 values for cytotoxicity were then calculated as reported[50] using nonlinear regression by GraphPad Prism 7 (Graphpad Software, Inc., San Diego, CA, USA, www.graphpad.com).
(§3) The cells were incubated at 37 °C at 5% CO2 for 48 h and the same protocol described above was followed. IC50 values of Dox were then obtained.

K562 cells [2] = test: Rhodamine 123 intracellular accumulation assay in K562; type: cell-based; conditions: 20 μM
Description: (§4) The intracellular accumulation of the fluorescent probes, Dox and Rho123, was determined by monitoring its fluorescence intensity using flow cytometry (96-well plate format), as previously reported. The inhibition on the outward transport of these P-gp substrates results in an increased […] fluorescence intensity (MFI). […] Those compounds showing inhibition on P-gp at the maximum tested concentration were further evaluated at serial dilutions to determinate their MECs. […] The plates were then incubated in a 5% CO2 incubator for 1 h at 37 °C. Afterwards, 5 μM Dox was added to each well. The other fluorescent specific substrate of P-gp, Rho123, however, was added at 500 ng/mL to additionally measure the ability of the most promising compounds to block its efflux. Subsequently, cells from both assays were washed twice with cold PBS, and 15,000 events from each sample were analyzed to determine the cell-associated fluorescence. Dead cells were eliminated by means of forward- and side-scatter parameters. […] The blocking of the P-gp transport function was evaluated by the parameter FIR, calculated as the ratio of the MFI of Dox or Rho123 with the addition of the likely inhibitor to the MFI of Dox or Rho123 alone.

Lucena 1 cells [3] = test: Doxorubicin resistance reversal assay; type: cell-based; conditions: for lowest co-administered concentration significantly increasing doxorubicin toxicity: p < 0.05
Description: as §3

PBMC = test: Cytotoxicity on peripheral blood mononuclear cells (MTT); type: cell-based; conditions: Homo sapiens, 48 h, PHA 10 μg/mL, read-out: inhibition on proliferation of PBMC
Description: as §1

K562 cells [4] = test: Doxorubicin intracellular accumulation assay (flow cytometry) in K562; type: cell-based; design: key: MFI with inhibitor / MFI of Dox alone; conditions: 5 μM Dox
Description: as §4

Lucena 1 cells [5] = test: MTT cytotoxicity assay in Lucena 1; type: cell-based; conditions: 48 h
Description: as §2, §3

P-gp [6] = molecular target: T1, P-gp (Homo sapiens, UniProt P08183); conditions: human, 1 h; for FIR Rho123: 0.62 µM; for FIR Rho123 (fold more Rho123 than untreated cells): 20 µM
Description: The intracellular accumulation of the fluorescent probes, Dox and Rho123, was determined by monitoring its fluorescence intensity using flow cytometry (96-well plate format), as previously reported. The inhibition on the outward transport of these P-gp substrates results in an increased […] fluorescence intensity (MFI). […] The plates were then incubated in a 5% CO2 incubator for 1 h at 37 °C. Afterwards, 5 μM Dox was added to each well. The other fluorescent specific substrate of P-gp, Rho123, however, was added at 500 ng/mL to additionally measure the ability of the most promising compounds to block its efflux. Subsequently, cells from both assays were washed twice with cold PBS, and 15,000 events from each sample were analyzed to determine the cell-associated fluorescence. Dead cells were eliminated by means of forward- and side-scatter parameters. […] The blocking of the P-gp transport function was evaluated by the parameter FIR, calculated as the ratio of the MFI of Dox or Rho123 with the addition of the likely inhibitor to the MFI of Dox or Rho123 alone.

P-gp [7] = molecular target: T1, P-gp; conditions: 1 h
Description: as §4

SphK1 = conditions: previously found, cited from earlier work
SphK2 = conditions: previously found, cited from earlier work
[8] = MTT cytotoxicity assay in K562; type: cell-based; conditions: human, K562 cells, read-out: IC50 (cytotoxicity) against K562
Description: as §2, §3

[9] = MTT cytotoxicity assay in Lucena 1; type: cell-based; conditions: human, Lucena 1 cells, read-out: IC50 (cytotoxicity) against Lucena 1
Description: as §2, §3

[10] = compound 1.25 µM, FR = IC50 Dox/IC50 Dox with compound, 48 h

T1 sequence (P08183 whole entry): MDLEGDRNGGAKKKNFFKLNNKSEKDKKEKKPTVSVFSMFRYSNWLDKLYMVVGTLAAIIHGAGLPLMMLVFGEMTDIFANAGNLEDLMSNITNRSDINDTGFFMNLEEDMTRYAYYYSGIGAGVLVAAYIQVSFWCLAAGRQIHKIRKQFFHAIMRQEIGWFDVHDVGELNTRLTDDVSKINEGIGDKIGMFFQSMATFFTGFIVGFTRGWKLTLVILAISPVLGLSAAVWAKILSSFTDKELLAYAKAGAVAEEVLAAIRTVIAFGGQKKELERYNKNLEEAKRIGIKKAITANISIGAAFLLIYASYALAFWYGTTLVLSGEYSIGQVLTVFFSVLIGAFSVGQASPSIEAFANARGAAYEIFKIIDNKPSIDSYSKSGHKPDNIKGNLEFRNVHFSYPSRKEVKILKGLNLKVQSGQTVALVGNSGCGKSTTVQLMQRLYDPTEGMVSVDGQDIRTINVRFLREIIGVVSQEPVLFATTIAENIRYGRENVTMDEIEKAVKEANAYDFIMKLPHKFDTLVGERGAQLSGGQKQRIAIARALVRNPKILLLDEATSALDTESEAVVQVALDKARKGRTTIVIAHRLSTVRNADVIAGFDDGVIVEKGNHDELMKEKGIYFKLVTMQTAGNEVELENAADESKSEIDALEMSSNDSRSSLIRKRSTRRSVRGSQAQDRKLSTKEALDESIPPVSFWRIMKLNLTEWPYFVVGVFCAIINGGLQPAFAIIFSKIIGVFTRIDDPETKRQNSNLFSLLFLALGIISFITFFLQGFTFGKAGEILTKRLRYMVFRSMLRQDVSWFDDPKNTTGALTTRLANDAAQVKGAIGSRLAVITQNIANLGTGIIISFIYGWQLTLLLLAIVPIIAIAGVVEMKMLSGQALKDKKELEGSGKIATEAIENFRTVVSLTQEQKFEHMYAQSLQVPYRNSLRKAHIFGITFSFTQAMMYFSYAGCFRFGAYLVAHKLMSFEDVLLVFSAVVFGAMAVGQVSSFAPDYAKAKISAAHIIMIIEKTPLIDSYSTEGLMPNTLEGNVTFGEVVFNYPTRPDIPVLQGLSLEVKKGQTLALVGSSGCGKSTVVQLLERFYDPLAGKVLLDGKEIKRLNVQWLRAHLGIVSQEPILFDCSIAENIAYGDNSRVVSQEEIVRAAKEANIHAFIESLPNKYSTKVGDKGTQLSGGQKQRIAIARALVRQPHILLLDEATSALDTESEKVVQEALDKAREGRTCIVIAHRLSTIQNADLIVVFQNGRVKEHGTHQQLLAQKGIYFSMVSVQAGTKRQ

Row | Compound | concentrations at which the erythrocyte membrane was not altered (erythrocytes) | IC50 (cytotoxicity) against K562 (K562 cells [1]) | Rho123 accumulation in K562 (result in words) (K562 cells [2]) | fold reversal (FR) of Dox resistance (Lucena 1 cells [3]; [10]) | lowest co-administered concentration significantly increasing doxorubicin toxicity (Lucena 1 cells [3]) [µM] | inhibition at 20 µM (PBMC) [%] | FIR K562 (K562 cells [4]; compound 20 µM) | IC50 (cytotoxicity) against Lucena 1 (Lucena 1 cells [5]) | minimum effective concentration (MEC), Rho123 accumulation (P-gp [6]) [µM] | FIR Rho123 (P-gp [6]) | FIR Rho123 (fold more Rho123 than untreated cells) (P-gp [6]) | minimum effective concentration (MEC), Dox accumulation (P-gp [7]) [µM] | FIR Lucena 1 (P-gp [7]; 0.16 µM) | FIR Lucena 1 (P-gp [7]; 0.31 µM) | FIR Lucena 1 (P-gp [7]; 0.62 µM) | FIR Lucena 1 (P-gp [7]; 1.25 µM) | FIR Lucena 1 (P-gp [7]; 2.5 µM) | FIR Lucena 1 (P-gp [7]; 5 µM) | FIR Lucena 1 (P-gp [7]; 10 µM) | FIR Lucena 1 (P-gp [7]; 20 µM) | also measured
1 | COc1cc2cc(CNc3ccc(Nc4nccc(-c5ccc6ccccc6c5)n4)cc3)c(=O)[nH]c2cc1OC [Compound 5c] | lower than 10 µM | non-toxic | no increase | 5.16 ± 0.60 | 0.04 | 21 | 0.95 ± 0.02 | non-toxic | 0.62 | 1.36 ± 0.04 | 2.72 ± 0.10 | 0.31 | 0.99 ± 0.07 | 1.12 ± 0.02 | 1.29 ± 0.08 | 1.22 ± 0.03 | 1.26 ± 0.01 | 1.23 ± 0.05 | 1.24 ± 0.10 | 1.42 ± 0.09 | fold reversal (FR) of Dox resistance (Lucena 1 cells [3]; compound 40 nM): 1.30 ± 0.05
2 | COc1cc2cc(CN3CCN(c4nccc(-c5ccc(Cl)cc5)n4)CC3)c(=O)[nH]c2cc1OC [Compound 6c] | – | – | – | – | – | – | 0.79 ± 0.007 | – | – | – | – | 0.62 | – | 1.00 ± 0.01 | 1.11 ± 0.03 | 1.19 ± 0.07 | 1.32 ± 0.08 | 1.32 ± 0.09 | 1.49 ± 0.20 | 1.68 ± 0.12 | IC50 against SphK1 (SphK1): no activity; IC50 against SphK2 (SphK2): no activity
3 | COc1ccc2[nH]c(=O)c(CN3CCN(c4nccc(-c5ccc6ccccc6c5)n4)CC3)cc2c1 [Compound 7b] | < 20 µM | non-toxic | no increase | 6.90 ± 2.84 | 0.08 | 12 | 0.88 ± 0.02 | non-toxic | 0.62 | 1.37 ± 0.06 | 3.05 ± 0.16 | 0.31 | 1.04 ± 0.02 | 1.10 ± 0.01 | 1.21 ± 0.01 | 1.18 ± 0.03 | 1.26 ± 0.04 | 1.26 ± 0.04 | 1.25 ± 0.04 | 1.43 ± 0.10 | IC50 (SphK1; read-out: IC50 against SphK1): > 650 µM; IC50 (SphK2; read-out: IC50 against SphK2): > 650 µM; fold reversal (FR) of Dox resistance (Lucena 1 cells [3]; compound 80 nM): 1.51 ± 0.23
4 | COc1cc2cc(COc3nccc(-c4ccc(Cl)cc4)n3)c(=O)[nH]c2cc1OC [Compound 11] | – | – | – | – | – | – | 1.44 ± 0.03 | – | – | – | – | 1.25 | – | – | 1.02 ± 0.02 | 1.14 ± 0.02 | 1.23 ± 0.04 | 1.38 ± 0.07 | 1.30 ± 0.07 | 2.87 ± 0.55 | IC50 at 48 h [8]: 3.8 ± 0.1 µM; FIR K562 (K562 cells [4]; compound 10 µM): 1.01 ± 0.02; IC50 at 48 h [9]: 10.7 ± 0.15 µM
